In experiment [1] the target is T1, human adenosine A2A receptor (Homo sapiens, UniProt P29274).
T1 construct: expressed in transfected cells; host or cells: HEK293 cells (HEK293hA2AR), from Dr. J. Wang (Biogen/IDEC); membrane preparation
The experiment can be described thus: Radioligand displacement assay, human adenosine A2A receptor ([3H]ZM241385, HEK293hA2AR membranes). In kind it is binding. As to conditions: n = 3; for A2A displacement at 10 µM: test compound 10 µM. How it is done: Human embryonic kidney 293 cells stably expressing the human adenosine A2A receptor (HEK293hA2AR) were kindly provided by Dr. J. Wang (Biogen/IDEC, Cambridge, MA, USA), CHO-spap cells stably expressing the wild-type (WT) hA2B receptor (CHO-spap-hA2BR) were kindly provided by S. J. Dowell (GlaxoSmithKline, Brentfort, UK).
(§1) All cells were grown to 80–90% confluency and detached from plates by scraping them into 5 mL phosphate-buffered saline. Detached cells were collected and centrifuged at 200 g for 5 min. Pellets derived from 100 15 cm Ø plates were pooled and resuspended in 70 mL of ice-cold 50 mM tris(hydroxymethyl)aminomethane (Tris)-HCl buffer, pH 7.4. A Heidolph Diax 900 homogenizer was used to homogenize the cell suspension. Membranes and the cytosolic fraction were separated by centrifugation at 100,000 g in a Beckman Optima LE-80 K ultracentrifuge (Beckman Coulter, Fullerton, CA, USA) at 4 °C for 20 min. The pellet was resuspended in 35 mL of the Tris-HCl buffer, and the homogenization and centrifugation steps were repeated. Tris-HCl buffer (25 mL) was used to resuspend the pellet, and adenosine deaminase (ADA) was added (0.8 U/mL) to break down endogenous adenosine. Membranes were stored in 250 µL and 500 µL aliquots at −80 °C. Total protein concentrations were measured using the bicinchoninic acid (BCA) method.
Nonspecific binding was determined in the presence of 100 µM adenosine-5-N-ethyluronamide (NECA). Incubations were terminated by rapid vacuum filtration to separate the bound and free radioligand through prewetted 96-well GF/B filter plates using a PerkinElmer Filtermate-harvester (Perkin Elmer, Groningen, The Netherlands). Filters were subsequently washed 12 times with ice-cold 50 mM Tris-HCl, pH 7.4.
(§2) The plates of all four adenosine receptor assays were dried at 55 °C after which MicroscintTM-20-cocktail was added (Perkin Elmer, Groningen, The Netherlands).
(§3) All experimental data were analyzed using the non-linear regression curve fitting program GraphPad Prism 7.0 (GraphPad Software Inc., San Diego, CA, USA). IC50 values obtained from competition displacement binding data were converted into Ki values using the Cheng–Prusoff equation.
(In general: Loss of bound radioactivity is the signal in a displacement assay; it reports binding, not function.)

The target in experiment [2] is T2, human adenosine A1 receptor (Homo sapiens, UniProt P30542).
T2 construct: expressed in transfected cells; host or cells: CHO cells (CHOhA1R), gift of Prof; S. J. Hill; membrane preparation
T2 sequence (P30542 1-326): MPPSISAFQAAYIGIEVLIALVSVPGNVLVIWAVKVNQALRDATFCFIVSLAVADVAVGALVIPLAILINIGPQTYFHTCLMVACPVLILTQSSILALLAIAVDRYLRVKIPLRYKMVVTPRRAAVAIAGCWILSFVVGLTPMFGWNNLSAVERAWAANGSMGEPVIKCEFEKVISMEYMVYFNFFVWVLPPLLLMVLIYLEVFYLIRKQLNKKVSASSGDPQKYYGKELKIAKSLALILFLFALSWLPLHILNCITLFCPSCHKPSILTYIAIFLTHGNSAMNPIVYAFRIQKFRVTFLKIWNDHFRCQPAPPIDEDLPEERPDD
The experiment can be described thus: Radioligand displacement assay, human adenosine A1 receptor ([3H]DPCPX, CHOhA1R membranes). In kind it is binding. As to conditions: n = 3; for inhibition at 10 µM: test compound 10 µM. How it is done:
as §1, with “Chinese hamster ovary (CHO) cells stably expressing the human adenosine A1 receptor (CHOhA1R) were kindly provided by Prof. S. J. Hill and CHO cells stably expressing the human adenosine A3 receptor (CHOhA3R) were a gift from Dr. K.-N. Klotz (University of Würzburg, Germany). Chinese hamster ovary cells stably expressing the human A1-receptor (CHOhA1R) or the human A3-receptor (CHOhA3R) were grown in Dulbecco’s Modified Eagle’s Medium (DMEM) and Ham’s F12 medium (1:1) supplemented with 10% (v/v) newborn calf serum, 50 µg/mL streptomycin, 50 IU/mL penicillin, and 200 µg/mL G418 at 37 °C and 5% CO2. […] All” for “All”
A1 Receptor: Membrane aliquots containing 5 µg (CHOhA1R) protein were incubated in a total volume of 100 µL assay buffer (50 mM Tris-HCl, pH 7.4) at 25 °C for 1 h. […] Nonspecific binding was determined in the presence of 100 µM N^6-cyclopentyladenosine (CPA). Incubations were terminated by rapid vacuum filtration to separate the bound and free radioligand through prewetted 96-well GF/B filter plates using a PerkinElmer Filtermate-harvester (Perkin Elmer, Groningen, the Netherlands). Filters were subsequently washed 12 times with ice-cold 50 mM Tris-HCl, pH 7.4.
as §2, §3

Setting [3] is: footnote a: tested at 1 µM, read-out: A2A Ki (bound, footnote a).

Molecules are shown by their SMILES. Like-named read-outs stand apart in the source and are kept apart here. Bounds are passed on as bounds.

For orientation: inhibition means the share of the control response that was lost under treatment. High values mean strong suppression, low ones little suppression. What is called Ki is a measure of affinity in units of concentration, obtained from inhibition or displacement.

T1 sequence (P29274 whole entry): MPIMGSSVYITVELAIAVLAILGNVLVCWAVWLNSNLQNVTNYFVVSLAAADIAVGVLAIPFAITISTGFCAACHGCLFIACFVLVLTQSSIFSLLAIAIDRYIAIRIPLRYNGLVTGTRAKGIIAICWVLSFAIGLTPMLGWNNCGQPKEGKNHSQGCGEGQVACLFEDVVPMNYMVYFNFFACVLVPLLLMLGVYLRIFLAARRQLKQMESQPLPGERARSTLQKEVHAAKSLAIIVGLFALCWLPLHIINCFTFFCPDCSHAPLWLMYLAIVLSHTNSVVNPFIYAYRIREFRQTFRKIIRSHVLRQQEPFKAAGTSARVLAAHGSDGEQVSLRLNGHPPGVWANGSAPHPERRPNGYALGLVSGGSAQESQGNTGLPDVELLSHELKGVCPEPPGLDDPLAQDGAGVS

For `COc1ccc(CNc2cc(Cl)nc3c2ncn3[C@H]2[C@H](O)[C@H](O)[C@]3(CO)C[C@H]23)cc1` [Compound 15, (1R,2R,3S,4R,5S)-4-{5-Chloro-7-[(4-methoxy)benzylamino]-3H-imidazo[4,5-b]pyridin-3-yl}-1-(hydroxymethyl)bicyclo[3.1.0]hexane-2,3-diol], the “A2A displacement at 10 µM” value in experiment [1] is 2%. Besides, at 10 µM the inhibition in experiment [2] was 12%.
As to `CCN(CC)CC.CSc1nc(N)c2ncn([C@H]3[C@H](O)[C@H](O)[C@]4(CNS(=O)(=O)CC(=O)O)C[C@H]34)c2n1` [Compound 48, Triethylammonium 2-(N-{[(1R,2R,3S,4R,5S)-4-(6-amino-2-methylthio-9H-purin-9-yl)-2,3-dihydroxybicyclo[3.1.0]hex-1-yl]methyl}sulfamoyl)acetate], the Ki in experiment [1] (setting [3]) is greater than 1000 nM. Also, in experiment [2] (footnote a: test compound 1 µM), the “A1 displacement at 1 µM” value is 3% ^a.
Regarding `CSc1nc(N)c2ncn([C@H]3[C@H](O)[C@H](O)[C@]4(Cn5cc(CN)nn5)C[C@H]34)c2n1` [Compound 43, (1R,2R,3S,4R,5S)-4-(6-Amino-2-methylthio-9H-purin-9-yl)-1-{[4-(aminomethyl)-1H-1,2,3-triazol-1-yl]methyl}bicyclo[3.1.0]hexane-2,3-diol], the “A2A displacement at 10 µM” value in experiment [1] was 3%. Further, in experiment [2], the inhibition at 10 µM was found to be 5%.
For `CSc1nc(N)c2ncn([C@H]3[C@H](O)[C@H](O)[C@]4(Cn5cc(CO)nn5)C[C@H]34)c2n1` [Compound 39, (1R,2R,3S,4R,5S)-4-(6-Amino-2-methylthio-9H-purin-9-yl)-1-{[4-(hydroxymethyl)-1H-1,2,3-triazol-1-yl]methyl}bicyclo[3.1.0]hexane-2,3-diol], in that order: 11% and 5%.
For `Nc1cc(Cl)c2ncn([C@H]3[C@H](O)[C@H](O)[C@]4(CO)C[C@H]34)c2n1` [Compound 11, (1R,2R,3S,4R,5S)-4-(5-Amino-7-chloro-3H-imidazo[4,5-b]pyridin-3-yl)-1-(hydroxymethyl)bicyclo[3.1.0]hexane-2,3-diol], in that order: 4% and 5%.
For `CSc1nc(N)c2ncn([C@H]3[C@H](O)[C@H](O)[C@]4(Cn5cc(CCC(=O)O)nn5)C[C@H]34)c2n1` [Compound 46], the Ki in experiment [1] (setting [3]) was greater than 1000 nM; in experiment [2] (footnote a: tested at 1 µM, read-out: A1 Ki (bound, footnote a)), greater than 1000 nM.
With `OC[C@@]12C[C@@H]1[C@@H](n1cnc3c(N(Cc4ccccc4)Cc4ccccc4)nc(Cl)nc31)[C@H](O)[C@@H]2O` [Compound 27, (1R,2R,3S,4R,5S)-4-[6-(Dibenzylamino)-2-chloro-9H-purin-9-yl]-1-(hydroxymethyl)bicyclo[3.1.0]hexane-2,3-diol], in experiment [1] ([3H]ZM241385, read-out: A2A Ki ± SEM), the Ki is greater than 10000 nM. This molecule also came in with an inhibition at 10 µM in experiment [2] of 15%.

(Values after article PMC9000336, “Development of Bicyclo[3.1.0]hexane-Based A3 Receptor Ligands: Closing the Gaps in the Structure–Affinity Relationships” (Molecules, 2022).)
